Reference: PMC5218480 (PLoS ONE, 2017)

System: MV-4-11 cells
Experiment: Gene expression microarray analysis (Affymetrix PrimeView) and GSEA
Type: cell-based, human
Parameters: RFU PODN (11730768_x_at) / Fold change /veh PODN (11730768_x_at) / RFU LINC00158 (11744669_a_at) / Fold change /veh LINC00158 (11744669_a_at) / RFU DUSP10 (11751237_a_at) / Fold change /veh DUSP10 (11751237_a_at) / RFU ID3 (11757404_x_at) / Fold change /veh ID3 (11757404_x_at) / RFU PLEKHG5 (11737974_s_at) / Fold change /veh PLEKHG5 (11737974_s_at) / RFU LRRC4B (11730491_at) / Fold change /veh LRRC4B (11730491_at) / RFU GIMAP4 (11747438_a_at) / Fold change /veh GIMAP4 (11747438_a_at) / RFU KRT8 (11758183_x_at) / Fold change /veh KRT8 (11758183_x_at) / RFU CNN1 (11734310_a_at) / Fold change /veh CNN1 (11734310_a_at) / RFU VPS37D (11726825_at) / Fold change /veh VPS37D (11726825_at) / RFU C10orf10 (11716522_x_at) / Fold change /veh C10orf10 (11716522_x_at) / RFU KIR2DL2 /// KIR2DL4 /// KIR2DL5A /// KIR2DL5B /// KIR2DS1 /// KIR2DS2 /// KIR2DS3 /// KIR2DS4 /// KIR3DL3 /// KIR3DL3 /// KIR3DS1 (11738374_at) / Fold change /veh KIR2DL2 /// KIR2DL4 /// KIR2DL5A /// KIR2DL5B /// KIR2DS1 /// KIR2DS2 /// KIR2DS3 /// KIR2DS4 /// KIR3DL3 /// KIR3DL3 /// KIR3DS1 (11738374_at) / RFU C1QL1 (11718748_at) / Fold change /veh C1QL1 (11718748_at) / RFU TMPRSS4 (11747572_a_at) / Fold change /veh TMPRSS4 (11747572_a_at) / RFU HAMP (11756126_x_at) / Fold change /veh HAMP (11756126_x_at) / RFU RNFT2 (11725882_a_at) / Fold change /veh RNFT2 (11725882_a_at) / RFU NR4A2 (11747474_a_at) / Fold change /veh NR4A2 (11747474_a_at) / RFU ABCC12 (11746883_a_at) / Fold change /veh ABCC12 (11746883_a_at) / RFU TMEM136 (11760407_x_at) / Fold change /veh TMEM136 (11760407_x_at) / RFU CLDN22 /// WWC2 (11732394_at) / Fold change /veh CLDN22 /// WWC2 (11732394_at) / RFU HLA-DPB1 (11760878_x_at) / Fold change /veh HLA-DPB1 (11760878_x_at) / RFU SPINT1 (11716480_a_at) / Fold change /veh SPINT1 (11716480_a_at) / RFU GAP43 (11754022_s_at) / Fold change /veh GAP43 (11754022_s_at) / RFU A4GNT (11735810_at) / Fold change /veh A4GNT (11735810_at) / RFU PRB3 (11715151_x_at) / Fold change /veh PRB3 (11715151_x_at) / RFU TUBB4B (11761932_at) / Fold change /veh TUBB4B (11761932_at) / RFU CAPN14 (11732068_a_at) / Fold change /veh CAPN14 (11732068_a_at) / RFU TMCC2 (11721928_a_at) / Fold change /veh TMCC2 (11721928_a_at) / RFU IRGQ (11745062_a_at) / Fold change /veh IRGQ (11745062_a_at) / RFU FAM174B (11720279_a_at) / Fold change /veh FAM174B (11720279_a_at) / RFU TMPRSS4 (11748680_a_at) / Fold change /veh TMPRSS4 (11748680_a_at) / RFU FAM212B (11763350_a_at) / Fold change /veh FAM212B (11763350_a_at) / RFU PLEKHG5 (11743358_a_at) / Fold change /veh PLEKHG5 (11743358_a_at) / RFU ZSCAN30 (11745921_a_at) / Fold change /veh ZSCAN30 (11745921_a_at) / RFU CMKLR1 (11741424_a_at) / Fold change /veh CMKLR1 (11741424_a_at) / RFU LOC101060620 /// MAPK8IP1 (11723275_at) / Fold change /veh LOC101060620 /// MAPK8IP1 (11723275_at) / RFU SPTSSB (11747773_x_at) / Fold change /veh SPTSSB (11747773_x_at) / RFU PRSS12 (11739890_at) / Fold change /veh PRSS12 (11739890_at) / RFU BIN1 (11741810_x_at) / Fold change /veh BIN1 (11741810_x_at) / RFU WNT11 (11732464_a_at) / Fold change /veh WNT11 (11732464_a_at) / RFU C10orf10 (11716521_a_at) / Fold change /veh C10orf10 (11716521_a_at) / RFU C5orf56 (11738089_at) / Fold change /veh C5orf56 (11738089_at) / RFU CYB561 (11721691_x_at) / Fold change /veh CYB561 (11721691_x_at) / RFU ANKRD19P (11752326_a_at) / Fold change /veh ANKRD19P (11752326_a_at) / RFU OR2T12 /// OR2T33 /// OR2T8 (11738714_s_at) / Fold change /veh OR2T12 /// OR2T33 /// OR2T8 (11738714_s_at) / RFU VCAN (11748164_a_at) / Fold change /veh VCAN (11748164_a_at) / RFU JSRP1 (11732532_at) / Fold change /veh JSRP1 (11732532_at) / RFU KRTAP10-11 (11738290_x_at) / Fold change /veh KRTAP10-11 (11738290_x_at) / RFU MYO3A (11730013_a_at) / Fold change /veh MYO3A (11730013_a_at) / RFU EBF3 (11725865_a_at) / Fold change /veh EBF3 (11725865_a_at) / RFU CAMK2N1 (11719241_x_at) / Fold change /veh CAMK2N1 (11719241_x_at) / RFU C5orf56 (11738088_a_at) / Fold change /veh C5orf56 (11738088_a_at) / RFU OLFML3 (11715873_a_at) / Fold change /veh OLFML3 (11715873_a_at) / RFU LOC100653217 /// NTM (11731650_a_at) / Fold change /veh LOC100653217 /// NTM (11731650_a_at) / RFU MAPK11 (11762145_a_at) / Fold change /veh MAPK11 (11762145_a_at) / RFU FIZ1 (11724087_x_at) / Fold change /veh FIZ1 (11724087_x_at) / RFU OASL (11726364_x_at) / Fold change /veh OASL (11726364_x_at) / RFU SOX15 (11748057_x_at) / Fold change /veh SOX15 (11748057_x_at) / RFU CD79A (11719716_a_at) / Fold change /veh CD79A (11719716_a_at) / RFU HIST1H1D (11736915_at) / Fold change /veh HIST1H1D (11736915_at) / RFU CASKIN2 (11723855_a_at) / Fold change /veh CASKIN2 (11723855_a_at) / RFU LOC730098 (11760151_x_at) / Fold change /veh LOC730098 (11760151_x_at) / RFU OR4N2 (11742367_at) / Fold change /veh OR4N2 (11742367_at) / RFU PRRT2 (11749266_a_at) / Fold change /veh PRRT2 (11749266_a_at) / RFU SNX32 (11753110_a_at) / Fold change /veh SNX32 (11753110_a_at) / RFU CDHR5 (11726645_a_at) / Fold change /veh CDHR5 (11726645_a_at) / RFU RCAN1 (11760418_a_at) / Fold change /veh RCAN1 (11760418_a_at) / RFU FAM167A (11723789_a_at) / Fold change /veh FAM167A (11723789_a_at) / RFU FAM26E (11764081_at) / Fold change /veh FAM26E (11764081_at) / RFU ISYNA1 (11749810_s_at) / Fold change /veh ISYNA1 (11749810_s_at) / RFU ACY1 (11761880_at) / Fold change /veh ACY1 (11761880_at) / RFU 11764098_at / Fold change /veh 11764098_at / RFU SAMD14 (11745864_x_at) / Fold change /veh SAMD14 (11745864_x_at) / RFU NPB (11741838_a_at) / Fold change /veh NPB (11741838_a_at) / RFU TMPRSS6 (11731388_a_at) / Fold change /veh TMPRSS6 (11731388_a_at) / RFU KRTAP10-2 (11738614_at) / Fold change /veh KRTAP10-2 (11738614_at) / RFU ARHGAP8 /// PRR5-ARHGAP8 (11727945_x_at) / Fold change /veh ARHGAP8 /// PRR5-ARHGAP8 (11727945_x_at) / RFU KRTAP5-7 /// NADSYN1 (11734609_at) / Fold change /veh KRTAP5-7 /// NADSYN1 (11734609_at) / RFU RASL12 (11751679_a_at) / Fold change /veh RASL12 (11751679_a_at) / RFU CDKN2B (11736163_a_at) / Fold change /veh CDKN2B (11736163_a_at) / RFU PRF1 (11729649_at) / Fold change /veh PRF1 (11729649_at) / RFU, ZNF638 /// ZNF638-IT1 / Fold change vs veh, ZNF638 /// ZNF638-IT1 / RFU, PANK3 / Fold change vs veh, PANK3 / RFU, SH3YL1 / Fold change vs veh, SH3YL1 / RFU, ZEB2 / Fold change vs veh, ZEB2 / RFU, NRIP1 / Fold change vs veh, NRIP1 / RFU, PTTG1IP / Fold change vs veh, PTTG1IP / RFU, CAPN2 / Fold change vs veh, CAPN2 / RFU, MED14 / Fold change vs veh, MED14 / RFU, SNORA58 / Fold change vs veh, SNORA58 / RFU, C1orf63 / Fold change vs veh, C1orf63 / RFU, LRRFIP1 / Fold change vs veh, LRRFIP1 / RFU, NDUFAF7 / Fold change vs veh, NDUFAF7 / RFU, SLC12A2 / Fold change vs veh, SLC12A2 / RFU, IBTK / Fold change vs veh, IBTK / RFU, ESF1 / Fold change vs veh, ESF1 / Fold change vs veh, TMEM50B / RFU, TAOK1 / Fold change vs veh, TAOK1 / RFU, ACBD3 / Fold change vs veh, ACBD3 / RFU, TMA16 / Fold change vs veh, TMA16 / RFU, RWDD3 / Fold change vs veh, RWDD3 / RFU, BCAT1 / Fold change vs veh, BCAT1 / RFU, EDEM3 / Fold change vs veh, EDEM3 / RFU, TMEM33 / Fold change vs veh, TMEM33 / RFU, WDR75 / Fold change vs veh, WDR75 / RFU, AHCTF1 / Fold change vs veh, AHCTF1 / RFU, TFRC / Fold change vs veh, TFRC / RFU, ZDHHC17 / Fold change vs veh, ZDHHC17 / RFU, NOM1 / Fold change vs veh, NOM1 / RFU, ARL8B / Fold change vs veh, ARL8B / RFU, ZBTB11 / Fold change vs veh, ZBTB11 / RFU, TAMM41 / Fold change vs veh, TAMM41 / RFU, KIAA1704 /// LOC100996395 / Fold change vs veh, KIAA1704 /// LOC100996395 / RFU, ING1 / Fold change vs veh, ING1 / RFU, TRMT61B / Fold change vs veh, TRMT61B / RFU, FUBP3 / Fold change vs veh, FUBP3 / RFU, TP53 / Fold change vs veh, TP53 / RFU, TNKS2 / Fold change vs veh, TNKS2 / RFU, ZFP14 / Fold change vs veh, ZFP14 / RFU, ACTR2 / Fold change vs veh, ACTR2 / RFU, PPP3R1 / Fold change vs veh, PPP3R1 / RFU, PIK3R1 / Fold change vs veh, PIK3R1 / RFU, HNRNPA1 / Fold change vs veh, HNRNPA1 / RFU, RNF170 / Fold change vs veh, RNF170 / RFU, ZNF28 / Fold change vs veh, ZNF28 / RFU, RNGTT / Fold change vs veh, RNGTT / RFU, OGT / Fold change vs veh, OGT / RFU, BRD1 / Fold change vs veh, BRD1 / RFU, MARS / Fold change vs veh, MARS / RFU, ZNF655 / Fold change vs veh, ZNF655 / RFU, FAHD1 / Fold change vs veh, FAHD1 / RFU, BDP1 / Fold change vs veh, BDP1 / RFU, LRRCC1 / Fold change vs veh, LRRCC1 / RFU, ARID1A / Fold change vs veh, ARID1A / RFU, ZNF146 / Fold change vs veh, ZNF146 / RFU, ZNF330 / Fold change vs veh, ZNF330 / RFU, GPN3 / Fold change vs veh, GPN3 / RFU, C9orf123 / Fold change vs veh, C9orf123 / RFU, N4BP2L2 / Fold change vs veh, N4BP2L2 / RFU, ARFIP1 / Fold change vs veh, ARFIP1 / RFU, FAM179B / Fold change vs veh, FAM179B / RFU, BCL10 / Fold change vs veh, BCL10 / RFU, UHRF1BP1L / Fold change vs veh, UHRF1BP1L / RFU, BET1 / Fold change vs veh, BET1 / RFU, CNOT2 / Fold change vs veh, CNOT2 / RFU, ZNF268 / Fold change vs veh, ZNF268 / Fold change vs veh, ZNF507 / RFU, DGCR2 / Fold change vs veh, DGCR2 / RFU, WDSUB1 / Fold change vs veh, WDSUB1 / Fold change vs veh, HSP90B1 /// MIR3652 / RFU, ADSS / Fold change vs veh, ADSS / RFU, GK / Fold change vs veh, GK / RFU, ZNF148 / Fold change vs veh, ZNF148 / RFU, TAF9 / Fold change vs veh, TAF9 / RFU, SLC1A5 / Fold change vs veh, SLC1A5 / RFU, SLMO2 / Fold change vs veh, SLMO2 / RFU, ABCC4 / Fold change vs veh, ABCC4 / RFU, LOC101060439 /// RAP1B / Fold change vs veh, LOC101060439 /// RAP1B / RFU, RFX7 / Fold change vs veh, RFX7 / RFU, GTPBP10 / Fold change vs veh, GTPBP10 / RFU, CNEP1R1 / Fold change vs veh, CNEP1R1 / RFU, BIVM-ERCC5 /// ERCC5 / Fold change vs veh, BIVM-ERCC5 /// ERCC5 / RFU, ILF3 / Fold change vs veh, ILF3 / RFU 11762660_at / Fold change /veh 11762660_at / RFU VCAN (11757783_s_at) / Fold change /veh VCAN (11757783_s_at) / RFU DDX43 (11728927_at) / Fold change /veh DDX43 (11728927_at) / RFU KRT8 (11758188_x_at) / Fold change /veh KRT8 (11758188_x_at) / RFU NKD1 (11759106_at) / Fold change /veh NKD1 (11759106_at) / RFU SRD5A1 (11742802_a_at) / Fold change /veh SRD5A1 (11742802_a_at) / RFU TPSAB1 /// TPSB2 (11721975_s_at) / Fold change /veh TPSAB1 /// TPSB2 (11721975_s_at) / RFU GSTM3 (11746129_a_at) / Fold change /veh GSTM3 (11746129_a_at) / RFU IL23R (11737362_x_at) / Fold change /veh IL23R (11737362_x_at) / RFU TMEM51 (11727254_a_at) / Fold change /veh TMEM51 (11727254_a_at) / RFU PIWIL2 (11732686_x_at) / Fold change /veh PIWIL2 (11732686_x_at) / RFU ORM1 (11744905_x_at) / Fold change /veh ORM1 (11744905_x_at) / RFU CCDC152 (11743942_at) / Fold change /veh CCDC152 (11743942_at) / RFU ECM1 (11717891_a_at) / Fold change /veh ECM1 (11717891_a_at) / RFU IL23R (11748794_a_at) / Fold change /veh IL23R (11748794_a_at) / RFU TNFAIP8L3 (11732012_x_at) / Fold change /veh TNFAIP8L3 (11732012_x_at) / RFU MBOAT4 (11741988_at) / Fold change /veh MBOAT4 (11741988_at) / RFU 11764193_at / Fold change /veh 11764193_at / RFU TMEM53 (11763286_at) / Fold change /veh TMEM53 (11763286_at) / RFU MAGEB2 (11727129_at) / Fold change /veh MAGEB2 (11727129_at) / RFU TMEM200A (11744735_a_at) / Fold change /veh TMEM200A (11744735_a_at) / RFU CCDC152 (11751479_a_at) / Fold change /veh CCDC152 (11751479_a_at) / RFU FAM211A (11726209_a_at) / Fold change /veh FAM211A (11726209_a_at) / RFU RGS16 (11746705_a_at) / Fold change /veh RGS16 (11746705_a_at) / RFU VCAN (11755009_s_at) / Fold change /veh VCAN (11755009_s_at) / RFU RHOB (11743442_s_at) / Fold change /veh RHOB (11743442_s_at) / RFU RGS16 (11720943_a_at) / Fold change /veh RGS16 (11720943_a_at) / RFU RGS16 (11720944_at) / Fold change /veh RGS16 (11720944_at) / RFU, VPS4B / Fold change vs veh, VPS4B / RFU, CREB1 / Fold change vs veh, CREB1 / RFU, DNAJC13 / Fold change vs veh, DNAJC13 / RFU, GNAQ / Fold change vs veh, GNAQ / RFU, CDK5R1 / Fold change vs veh, CDK5R1 / RFU, ZRANB3 / Fold change vs veh, ZRANB3 / RFU, CUL4A / Fold change vs veh, CUL4A / RFU, CCNY / Fold change vs veh, CCNY / RFU, UFL1 / Fold change vs veh, UFL1 / RFU, COG3 / Fold change vs veh, COG3 / RFU, DIAPH2 / Fold change vs veh, DIAPH2 / RFU, SKA2 / Fold change vs veh, SKA2 / RFU, AFF3 / Fold change vs veh, AFF3 / RFU, LMF1 / Fold change vs veh, LMF1 / RFU, IPO11 / Fold change vs veh, IPO11 / RFU, DFFB / Fold change vs veh, DFFB / RFU, FOXP1 / Fold change vs veh, FOXP1 / RFU, CARD8 / Fold change vs veh, CARD8 / RFU, STRN3 / Fold change vs veh, STRN3 / RFU, ADK / Fold change vs veh, ADK / RFU, RASSF2 / Fold change vs veh, RASSF2 / RFU, WIPF1 / Fold change vs veh, WIPF1 / RFU, LARP1B / Fold change vs veh, LARP1B / RFU, RASA1 / Fold change vs veh, RASA1 / RFU, RB1 / Fold change vs veh, RB1 / RFU, PPFIA1 / Fold change vs veh, PPFIA1 / RFU, MAT2A / Fold change vs veh, MAT2A / RFU, CCT5 / Fold change vs veh, CCT5 / RFU, WDR92 / Fold change vs veh, WDR92 / RFU, CUX1 / Fold change vs veh, CUX1 / RFU, TTC7A / Fold change vs veh, TTC7A / RFU, TMEM135 / Fold change vs veh, TMEM135 / RFU, DEPTOR / Fold change vs veh, DEPTOR / RFU, CPM / Fold change vs veh, CPM / RFU, DNAJB6 / Fold change vs veh, DNAJB6 / RFU, CACNA2D3 / Fold change vs veh, CACNA2D3 / RFU, DTX4 / Fold change vs veh, DTX4 / RFU, TFCP2 / Fold change vs veh, TFCP2 / RFU, GMCL1 /// GMCL1P1 / Fold change vs veh, GMCL1 /// GMCL1P1 / RFU, AEBP2 / Fold change vs veh, AEBP2 / RFU, SNHG1 /// SNORD22 /// SNORD25 /// SNORD26 /// SNORD27 /// SNORD28 /// SNORD29 /// SNORD31 / Fold change vs veh, SNHG1 /// SNORD22 /// SNORD25 /// SNORD26 /// SNORD27 /// SNORD28 /// SNORD29 /// SNORD31 / Fold change (Aza/veh), C12orf56 (ProbeSet 11735607_a_at) / Fold change (ACY-1035/veh), C12orf56 (ProbeSet 11735607_a_at) / Fold change (Aza/veh), FGFR1OP (ProbeSet 11751329_s_at) / Fold change (ACY-1035/veh), FGFR1OP (ProbeSet 11751329_s_at) / Fold change (Aza/veh), VPS36 (ProbeSet 11739960_a_at) / Fold change (ACY-1035/veh), VPS36 (ProbeSet 11739960_a_at) / RFU SYPL1 (11715823_x_at) / Fold change /veh SYPL1 (11715823_x_at) / RFU IGFBP7 (11715501_s_at) / Fold change /veh IGFBP7 (11715501_s_at) / RFU REEP3 (11722064_at) / Fold change /veh REEP3 (11722064_at) / RFU IGLL1 (11728026_x_at) / Fold change /veh IGLL1 (11728026_x_at): dose or concentration left out as unconfirmed
Details: MV-4-11 cells, 48 hours

Question: How did the “RFU TMEM53 (11763286_at)” value turn out when `Nc1ncn([C@@H]2O[C@H](CO)[C@@H](O)[C@H]2O)c(=O)n1` [azacitidine] was run?
Answer: 26.80 RFU
